Test results published in PMC11399425, “Tricyclic and tetracyclic antidepressants upregulate VMAT2 activity and rescue disease-causing VMAT2 variants” (Neuropsychopharmacology, 2024).

Tests used:
[1] = target: T1, VMAT2 (Mus musculus, UniProt Q8BRU6); test: FFN206 uptake upregulation assay (18-h treatment, washout) in HEK-VMAT2 cells; type: cell-based; set-up: The full-length mouse and human SLC18A2 cDNAs encoding VMAT2 were cloned into pcDNA3.1 vectors; expressed in transfected cells; details: for Effect on VMAT2 activity, sustained: 10 μM, washout, vs vehicle; for Effect on VMAT2 activity, sustained / Effect on VMAT2 activity, sustained, known VMAT2 inhibitors: 18 h; for EC50 / Emax, % vehicle (mean ± SEM): 18 h treatment followed by washout; for EC50: HEK-VMAT2 cells, read-out: EC50 (95% CI), VMAT2 upregulation; for Emax, % vehicle (mean ± SEM): at Emax concentration; for Emax concentration: 18 h treatment, concentration giving Emax; for Hill slope (upregulation): 18 h upregulation curve fit; for Effect on VMAT2 activity, sustained, known VMAT2 inhibitors: increasing concentrations (Fig. S5)
[2] = target: T1, VMAT2; test: FFN206 uptake inhibition assay (30-min treatment) in HEK-VMAT2 cells; details: for Hill Slope (inhibition): 30 min inhibition curve fit; for Imax, % vehicle (mean ± SEM): VMAT2 activity at 100 μM compound, 30 min, normalized to vehicle (100%)
Procedure: We detected colocalization of VMAT2 and FFN206 using epifluorescence microscopy (Fig. S2) and used FFN206 uptake to measure VMAT2 activity in HEK cells stably expressing mouse VMAT2 (HEK-VMAT2). We tested seven tricyclics and three tetracyclics that are approved for clinical use in humans (Fig. 1A, B). […] Next, we assessed the potency of the tricyclics and tetracyclics using dose response experiments.
For the inhibition assay, HEK-VMAT2 cells were seeded at 50,000 cells/well on day 1. […] Cells were incubated with FFN206 for 1hr. FFN206 uptake was terminated by aspirating the medium, and cells were washed twice with 200μL warm PBS (supplemented with 500μM MgCl2 and 900μM CaCl2), each with 5min incubation. Subsequently, 100μL warm PBS was added to each well and the plate was read with a Mithras LB 940 plate reader at excitation/emission filters 380nm/450nm.

[3] = test system: mVMAT2 mRNA; test: RT-qPCR of mVMAT2 in HEK-VMAT2 cells; details: 100 μM, 18 h, HEK293 cells
Procedure: (§3) HEK-VMAT2, HEK-YFP-DAT, HEK-SERT, and BE(2)-M17 cells were seeded in 6-well tissue culture plates at 1,000,000 cells/well density. […] On the third day, medium was aspirated and the cells were directly collected in 1 mL/well of Trizol for RNA isolation [26]. RNA was reverse-transcribed into cDNA using the SuperScript™ IV VILO™ Master Mix with ezDNase™ Enzyme. Quantitative RT-qPCR was performed using PowerUp™ SYBR™ Green Master Mix and QuantStudio 3 Real-Time PCR System (ThermoFisher Scientific). The relative fold of gene expression was calculated as 2^-(∆∆Ct) normalized to GAPDH levels.

[4] = test system: hSERT mRNA; test: RT-qPCR of hSERT in HEK-SERT cells; details: 100 μM, 18 h, HEK293 cells
Procedure: as §3

[5] = target: T2, SERT (SLC6A4) (Homo sapiens, UniProt P31645); type: cell-based
T2 construct: expressed in transfected cells
Procedure: (§1) HEK293, HEK-VMAT2, HEK-YFP-DAT, and HEK-SERT cells were seeded at 5,000,000 cells/dish density in 10 cm tissue culture dishes. […] On the collection day, cells were washed once with cold PBS, then harvested with 2 mL Tris-EDTA buffer (25 mM Tris-HCl, 1 mM EDTA, pH 7.4) containing freshly-added protease/phosphatase inhibitors. The cells were mechanically lysed on ice by Polytron (medium setting, 5 sec on, 5 sec off, two cycles), and centrifuged at 800 x g for 10 min at 4 °C to pellet the nuclear fraction. […] The supernatant was discarded and the pellet containing membrane proteins was resuspended with Tris-EDTA buffer with inhibitors and 0.2% SDS by vortexing until the pellet was dissolved. The protein concentration was determined using Pierce™ BCA Protein Assay Kits following the manufacturer’s instructions.
Electrophoretic resolution was done in MOPS-SDS running buffer (50 mM MOPS, 50 mM Tris, 0.1% SDS, 1 mM EDTA). The proteins were transferred onto a […] PVDF membrane and stained using Revert™ 700 Total Protein Stain. The resolved proteins were visualized at 700 nm on an Odyssey® M imaging system (LI-COR, Inc.). […] The blots were visualized under 700 nm and 800 nm channels on the Odyssey® M imaging system (LI-COR, Inc.) and quantified using ImageJ and Empiria Studio.

[6] = target: T1, VMAT2; details: 100 μM, 18 h, HEK-VMAT2 cells
Procedure: as §1
(§2) Electrophoretic resolution was done in MOPS-SDS running buffer (50 mM MOPS, 50 mM Tris, 0.1% SDS, 1 mM EDTA). The proteins were transferred onto a […] PVDF membrane and stained using Revert™ 700 Total Protein Stain. The resolved proteins were visualized at 700 nm on an Odyssey® M imaging system (LI-COR, Inc.). […] For the VMAT2 blot, the membrane was incubated with rabbit serum (in 50% glycerol) containing anti-mVMAT2 antibody against C-terminal peptide ([…]) at 1:3000 dilution overnight at 4 °C [24]. For the YFP-DAT blot, the membrane was incubated with rabbit-anti-GFP antibody (A11122) at 1:1500 dilution for 2 h at room temperature. For the SERT blot, the membrane was incubated with rabbit anti-SERT antibody (A104336, Antibodies.com) at 1:1000 dilution overnight at 4 °C. IRDye® 800CW Goat anti-Rabbit IgG secondary antibody at 1:7000 dilution in 3% non-fat milk in TBST was used for all blots. The blots were visualized under 700 nm and 800 nm channels on the Odyssey® M imaging system (LI-COR, Inc.) and quantified using ImageJ and Empiria Studio.

[7] = target: DAT (SLC6A3) (Homo sapiens, UniProt Q01959); details: 100 μM, 18 h, HEK-YFP-DAT cells
Procedure: as §1, §2

[8] = test system: monoamine transporter mRNA (VMAT2, VMAT1, DAT, NET, SERT); test: RT-qPCR of endogenous monoamine transporters mRNA in BE(2)-M17 cells; type: cell-based, human; details: 10 μM, 18 h
Procedure: as §3

[9] = test system: nine missense VMAT2 BMVTD variants; test: FFN206 uptake of transiently transfected VMAT2 BMVTD variants in HEK293T cells; type: cell-based, human; details: 50 μM, 18 h, total FFN206 fluorescence
[10] = test system: hDAT mRNA; test: RT-qPCR of hDAT in HEK-YFP-DAT cells; type: cell-based, human; details: 100 μM, 18 h, HEK293 cells
Procedure: as §3

[11] = ref PubChem; cited from earlier work
[12] = target: VMAT2 P237H (Homo sapiens, UniProt Q05940, P237H); details: 18 h, increasing concentration
[13] = target: VMAT2 P387L (Homo sapiens, UniProt Q05940, P387L); details: 18 h, increasing concentration
[14] = target: VMAT2 (Homo sapiens, UniProt Q05940); details: 10 μM, 18 h, BE(2)-M17 cells

| Compound | Effect on VMAT2 activity, sustained [1] | EC50 [1] [µM] | Emax, % vehicle (mean ± SEM) [1] [% vehicle] | Emax concentration [1] [µM] | Hill slope (upregulation) [1] | IC50 [2] [µM] | Hill Slope (inhibition) [2] | Imax, % vehicle (mean ± SEM) [2] [% vehicle] | further results |
| --- | --- | --- | --- | --- | --- | --- | --- | --- | --- |
| CNCCCN1c2ccccc2CCc2ccccc21 [DES, Desipramine] | significant upregulation of VMAT2 activity | 17.1 | 177.59 ± 5.96 | 56.23 | 1.530 | 16.2 | –1.176 | 7.51 ± 1.28 |  |
| COc1cc2c(cc1OC)C1CC(=O)C(CC(C)C)CN1CC2 (stereo not shown) [TBZ, tetrabenazine] |  |  |  |  |  | 0.037 | –0.598 | 9.51 ± 0.67 | Effect on VMAT2 activity, sustained, known VMAT2 inhibitors [1]: no upregulation of VMAT2 activity was observed |
| O=C(CCCN1CCC(O)(c2ccc(Cl)cc2)CC1)c1ccc(F)cc1 [haloperidol] |  |  |  |  |  |  |  |  | Effect on VMAT2 activity, sustained, known VMAT2 inhibitors [1]: no upregulation of VMAT2 activity was observed |
| CN1CCN2c3ncccc3Cc3ccccc3C2C1 (stereo not shown) [MIR, mirtazapine] |  | 35.1 | 175.11 ± 7.95 | 100 | 2.486 | 170 | –0.978 | 63.27 ± 7.1 |  |
| CNCCCC1c2ccccc2C=Cc2ccccc21 [PRO, Protriptyline] | significant upregulation of VMAT2 activity |  | 223.92 ± 11.02 | 31.62 | 0.777 | 4.35 | –1.042 | 2.93 ± 0.24 |  |
| CC(CN(C)C)CN1c2ccccc2CCc2ccccc21 (stereo not shown) [TRI, Trimipramine] | significant upregulation of VMAT2 activity | 31.1 | 194.63 ± 22.32 | 100 | 1.939 | 13.1 | –1.173 | 5.87 ± 1.33 |  |
| CN(C)CCCN1c2ccccc2CCc2ccccc21 [IMI, Imipramine] | significant upregulation of VMAT2 activity | 29.9 | 245.36 ± 15.06 |  | 1.505 | 17.3 | –1.195 |  | Emax, % vehicle (mean ± SEM) ([1]; listed as imipramine): 245.36 % vehicle; VMAT2 mRNA expression [3]: elevated mRNA expression; SERT mRNA expression [4]: elevated mRNA expression; Total SERT protein [5]: significantly increased total SERT protein; Total VMAT2 protein [6]: significant increase; Total DAT protein [7]: did not affect total DAT protein; Monoamine transporter mRNA (including VMAT2) [8]: no upregulation in any monoamine transporter mRNA; Activity of all VMAT2 variants [9]: significant upregulation of activity of all VMAT2 variants; DAT mRNA expression [10]: elevated mRNA expression |
| CN1CCN2c3ccccc3Cc3ccccc3C2C1 (stereo not shown) [MIA, Mianserin] |  |  |  |  |  |  |  |  | logP [11]: 3.4; Total DAT protein [7]: did not affect total DAT protein; Variant VMAT2 activity, dose-response [12]: dose-dependent upregulation; Variant VMAT2 activity, dose-response [13]: dose-dependent upregulation; Activity of all VMAT2 variants [9]: significant upregulation of activity of all VMAT2 variants; Endogenous VMAT2 activity ([14]; followed by washout): 270 % of vehicle; Endogenous VMAT2 activity without washout ([14]; without drug washout): significant upregulation of endogenous VMAT2 activity |
| CN(C)CCC=C1c2ccccc2CCc2ccccc21 [AMI, Amitriptyline] |  |  | 237.26 ± 7.63 | 31.62 | 1.728 | 12.4 | –1.173 | 8.47 ± 1.88 |  |
| CNCCC=C1c2ccccc2CCc2ccccc21 [NOR, Nortriptyline] | significant upregulation of VMAT2 activity |  | 207.90 ± 18.90 | 31.62 | 0.915 | 13.3 | –0.920 | 8.73 ± 1.11 |  |
